Assay results: patent US10251394B2, “Molecules having pesticidal utility, and intermediates, compositions, and processes, related thereto” (Dow AgroSciences LLC, priority 2016, dated 2019)

Assays:
[1] = test system: Beet Armyworm (Spodoptera exigua); assay: Bioassay on Beet Armyworm (BAW), 128-well diet tray assay; assay type: in vivo; conditions: for mortality at 0.05 µg/cm2 / mortality at 0.5 µg/cm2 / mortality at 5 µg/cm2: 168 h, second instar larvae, five to seven days, read-out: BAW Percent control (or mortality); for mortality at 0.05 µg/cm2: 0.05 μg/cm^2 on artificial diet; for mortality at 0.5 µg/cm2: 0.5 μg/cm^2 on artificial diet; for mortality at 5 µg/cm2: 5 μg/cm^2 on artificial diet; for pest or weed control at 50 µg/cm2: Beet Armyworm, Table ABC, read-out: BAW rating
Protocol: (§1) Example A: Bioassays on Beet Armyworm (Spodoptera Exigua, LAPHEG) (“BAW”), Corn Earworm (Helicoverpa Zea, HELIZE) (“CEW”), and Cabbage Looper (Trichoplusia Ni, TRIPNI) (“CL”)
(§2) Certain molecules disclosed in this document were tested against BAW, CEW, and CL using procedures described in the following examples. In the reporting of the results, the “BAW, CEW, & CL Rating Table” was used (See Table Section).
Bioassays on BAW were conducted using a 128-well diet tray assay. One to five second instar BAW larvae were placed in each well (3 mL) of the diet tray that had been previously filled with 1 mL of artificial diet to which 50 μg/cm^2 of the test molecule (dissolved in 50 μL of 90:10 acetone-water mixture) had been applied (to each of eight wells) and then allowed to dry. Trays were covered with a clear self-adhesive cover and held at 25° C., 14:10 light-dark for five to seven days. Percent mortality was recorded for the larvae in each well; activity in the eight wells was then averaged. The results are indicated in the table entitled “Table ABC: Biological Results” (See Table Section).
(§3) Bioassays on BAW and CL were conducted according to the procedures outlined in Example A: Bioassays on Beet Armyworm (“BAW”) and Cabbage Looper (“CL”) using the indicated concentrations.

[2] = test system: Cabbage Looper (Trichoplusia ni); assay: Bioassay on Cabbage Looper (CL), 128-well diet tray assay; assay type: in vivo; conditions: for mortality at 0.05 µg/cm2 / mortality at 0.5 µg/cm2 / mortality at 5 µg/cm2: 168 h, second instar larvae, five to seven days, read-out: CL Percent control (or mortality); for mortality at 0.05 µg/cm2: 0.05 μg/cm^2 on artificial diet; for mortality at 0.5 µg/cm2: 0.5 μg/cm^2 on artificial diet; for mortality at 5 µg/cm2: 5 μg/cm^2 on artificial diet; for pest or weed control at 50 µg/cm2: Cabbage Looper, Table ABC, read-out: CL rating
Protocol: as §1, §2
Bioassays on CL were conducted using a 128-well diet tray assay. One to five second instar CL larvae were placed in each well (3 mL) of the diet tray that had been previously filled with 1 mL of artificial diet to which 50 μg/cm^2 of the test molecule (dissolved in 50 μL of 90:10 acetone-water mixture) had been applied (to each of eight wells) and then allowed to dry. Trays were covered with a clear self-adhesive cover and held at 25° C., 14:10 light-dark for five to seven days. Percent mortality was recorded for the larvae in each well; activity in the eight wells was then averaged. The results are indicated in the table entitled “Table ABC: Biological Results” (See Table Section).
as §3

Structure (SMILES)	mortality at 0.05 µg/cm2 [1] [%]	mortality at 0.5 µg/cm2 [1] [%]	mortality at 5 µg/cm2 [1] [%]	pest or weed control at 50 µg/cm2 [1] [%]	mortality at 0.05 µg/cm2 [2] [%]	mortality at 0.5 µg/cm2 [2] [%]	mortality at 5 µg/cm2 [2] [%]	pest or weed control at 50 µg/cm2 [2] [%]
C[C@@H](NC(=O)c1ccc(/C(F)=C/C(c2cc(Cl)c(Cl)c(Cl)c2)C(F)(F)F)cc1Br)C(=O)NCC(F)(F)F (stereo partly drawn) [F18, 2-Bromo-N—((R)-1-oxo-1-((2,2,2-trifluoroethyl)amino)propan-2-yl)-4-((Z)-1,4,4,4-tetrafluoro-3-(3,4,5-trichlorophenyl)but-1-en-1-yl)benzamide]	100	100	100	50 to 100	100	100	100	50 to 100
O=C(CNC(=O)c1ccc(/C(F)=C/C(c2cc(Cl)c(Cl)c(Cl)c2)C(F)(F)F)cc1Br)NCC(F)(F)F (stereo not shown) [F19, (Z)-2-Bromo-N-(2-oxo-2-((2,2,2-trifluoroethyl)amino)ethyl)-4-(1,4,4,4-tetrafluoro-3-(3,4,5-trichlorophenyl)but-1-en-1-yl)benzamide]	100	100	100	50 to 100	100	100	100	50 to 100
CCN(CC(F)(F)F)C(=O)[C@@H](C)NC(=O)c1ccc(/C(F)=C/C(c2cc(Cl)c(Cl)c(Cl)c2)C(F)(F)F)cc1C(F)(F)F (stereo partly drawn) [F20, N—((R)-1-(Ethyl(2,2,2-trifluoroethyl)amino)-1-oxopropan-2-yl)-4-((Z)-1,4,4,4-tetrafluoro-3-(3,4,5-trichlorophenyl)but-1-en-1-yl)-2-(trifluoromethyl)benzamide]	–	–	–	50 to 100	–	–	–	50 to 100
O=C(NC1(C(=O)NCC(F)(F)F)CC1)c1ccc(/C(F)=C/C(c2cc(Cl)c(Cl)c(Cl)c2)C(F)(F)F)cc1Br (stereo not shown) [F21, (Z)-2-Bromo-4-(1,4,4,4-tetrafluoro-3-(3,4,5-trichlorophenyl)but-1-en-1-yl)-N-(1-((2,2,2-trifluoroethyl)carbamoyl)cyclopropyl)benzamide]	–	–	–	50 to 100	–	–	–	50 to 100
O=C(CNC(=O)c1ccc(/C(F)=C/C(c2cc(Cl)c(Cl)c(Cl)c2)C(F)(F)F)cc1Cl)NCC(F)(F)F (stereo not shown) [F22, (Z)-2-Chloro-N-(2-oxo-2-((2,2,2-trifluoroethyl)amino)ethyl)-4-(1,4,4,4-tetrafluoro-3-(3,4,5-trichlorophenyl)but-1-en-1-yl)benzamide]	100	100	100	50 to 100	100	100	100	50 to 100
C[C@@H](NC(=O)c1ccc(/C(F)=C/C(c2cc(Cl)c(Cl)c(Cl)c2)C(F)(F)F)cc1Cl)C(=O)NCC(F)(F)F (stereo partly drawn) [F23, 2-Chloro-N—((R)-1-oxo-1-((2,2,2-trifluoroethyl)amino)propan-2-yl)-4-((Z)-1,4,4,4-tetrafluoro-3-(3,4,5-trichlorophenyl)but-1-en-1-yl)benzamide]	81	100	100	50 to 100	100	100	100	50 to 100
CON(CC(F)(F)F)C(=O)[C@@H](C)NC(=O)c1ccc(/C(F)=C/C(c2cc(Cl)c(Cl)c(Cl)c2)C(F)(F)F)cc1C(F)(F)F (stereo partly drawn) [F24, N—((R)-1-(Methoxy(2,2,2-trifluoroethyl)amino)-1-oxopropan-2-yl)-4-((Z)-1,4,4,4-tetrafluoro-3-(3,4,5-trichlorophenyl)but-1-en-1-yl)-2-(trifluoromethyl)benzamide]	–	–	–	50 to 100	–	–	–	50 to 100
CCN(CC(F)(F)F)C(=O)[C@@H](C)NC(=O)c1ccc(/C(F)=C/C(c2cc(Cl)c(Cl)c(Cl)c2)C(F)(F)F)cc1Br (stereo partly drawn) [F25, 2-Bromo-N—((R)-1-(ethyl(2,2,2-trifluoroethyl)amino)-1-oxopropan-2-yl)-4-((Z)-1,4,4,4-tetrafluoro-3-(3,4,5-trichlorophenyl)but-1-en-1-yl)benzamide]	–	–	–	50 to 100	–	–	–	50 to 100
Cc1cc(/C(F)=C/C(c2cc(Cl)c(Cl)c(Cl)c2)C(C)(F)F)ccc1C(=O)N[C@H](C)C(=O)NCC(F)(F)F (stereo partly drawn) [F26, 2-Methyl-N—((R)-1-oxo-1-((2,2,2-trifluoroethyl)amino)propan-2-yl)-4-((Z)-1,4,4-trifluoro-3-(3,4,5-trichlorophenyl)pent-1-en-1-yl)benzamide]	–	–	–	50 to 100	–	–	–	50 to 100
C=CCON(CC(F)(F)F)C(=O)[C@@H](C)NC(=O)c1ccc(/C(F)=C/C(c2cc(Cl)c(Cl)c(Cl)c2)C(F)(F)F)cc1C(F)(F)F (stereo partly drawn) [F27, N—((R)-1-((Allyloxy)(2,2,2-trifluoroethyl)amino)-1-oxopropan-2-yl)-4-((Z)-1,4,4,4-tetrafluoro-3-(3,4,5-trichlorophenyl)but-1-en-1-yl)-2-(trifluoromethyl)benzamide]	–	–	–	50 to 100	–	–	–	50 to 100
O=C(NC1(C(=O)NCC(F)(F)F)CC1)c1ccc(/C(F)=C/C(c2cc(Cl)c(Cl)c(Cl)c2)C(F)(F)F)cc1Cl (stereo not shown) [F28, (Z)-2-Chloro-4-(1,4,4,4-tetrafluoro-3-(3,4,5-trichlorophenyl)but-1-en-1-yl)-N-(1-((2,2,2-trifluoroethyl)carbamoyl)cyclopropyl)benzamide]	–	–	–	50 to 100	–	–	–	50 to 100
C[C@@H](NC(=O)c1ccc(/C(F)=C/C(c2cc(Cl)c(Cl)c(Cl)c2)C(C)(F)F)cc1C(F)(F)F)C(=O)NCC(F)(F)F (stereo partly drawn) [F29, N—((R)-1-Oxo-1-((2,2,2-trifluoroethyl)amino)propan-2-yl)-4-((Z)-1,4,4-trifluoro-3-(3,4,5-trichlorophenyl)pent-1-en-1-yl)-2-(trifluoromethyl)benzamide]	–	–	–	50 to 100	–	–	–	50 to 100
C[C@@H](NC(=O)c1ccc(/C(F)=C/C(c2cc(Cl)c(Cl)c(Cl)c2)C(F)(F)F)cc1C(F)(F)F)C(=O)NCC(F)F (stereo partly drawn) [F30, N—((R)-1-((2,2-Difluoroethyl)amino)-1-oxopropan-2-yl)-4-((Z)-1,4,4,4-tetrafluoro-3-(3,4,5-trichlorophenyl)but-1-en-1-yl)-2-(trifluoromethyl)benzamide]	–	–	–	50 to 100	–	–	–	50 to 100
C[C@@H](NC(=O)c1ccc(/C(F)=C/C(c2cc(Cl)c(Cl)c(Cl)c2)C(F)(F)F)cc1Br)C(=O)NCC(F)F (stereo partly drawn) [F31, 2-Bromo-N—((R)-1-((2,2-difluoroethyl)amino)-1-oxopropan-2-yl)-4-((Z)-1,4,4,4-tetrafluoro-3-(3,4,5-trichlorophenyl)but-1-en-1-yl)benzamide]	–	–	–	50 to 100	–	–	–	50 to 100
C[C@@H](NC(=O)c1ccc(/C(F)=C/C(c2cc(Cl)c(Cl)c(Cl)c2)C(F)(F)F)cc1Cl)C(=O)NCC(F)F (stereo partly drawn) [F32, 2-Chloro-N—((R)-1-((2,2-difluoroethyl)amino)-1-oxopropan-2-yl)-4-((Z)-1,4,4,4-tetrafluoro-3-(3,4,5-trichlorophenyl)but-1-en-1-yl)benzamide]	–	–	–	50 to 100	–	–	–	50 to 100
CN(CC(F)(F)F)C(=O)CNC(=O)c1ccc(/C(F)=C/C(c2cc(Cl)c(Cl)c(Cl)c2)C(F)(F)F)cc1Cl (stereo not shown) [F47, (Z)-2-Chloro-N-(2-(methyl(2,2,2-trifluoroethyl)amino)-2-oxoethyl)-4-(1,4,4,4-tetrafluoro-3-(3,4,5-trichlorophenyl)but-1-en-1-yl)benzamide]	–	–	–	50 to 100	–	–	–	50 to 100
CN(CC(F)(F)F)C(=O)CNC(=O)c1ccc(/C(F)=C/C(c2cc(Cl)c(Cl)c(Cl)c2)C(F)(F)F)cc1Br (stereo not shown) [F48, (Z)-2-Bromo-N-(2-(methyl(2,2,2-trifluoroethyl)amino)-2-oxoethyl)-4-(1,4,4,4-tetrafluoro-3-(3,4,5-trichlorophenyl)but-1-en-1-yl)benzamide]	–	–	–	50 to 100	–	–	–	50 to 100
